For data set [1], the target named is T1, Taq polymerase (Thermus aquaticus, UniProt P19821). Nature of the data set: Half-life of Taq polymerase activity at 95° C. in surfactant solutions (3H-TTP incorporation). The conditions noted are these: incubated at 95° C.; for estimated half-life of Taq polymerase: Example 2: 0.1% surfactant, control without surfactant less than 5 min; for Taq polymerase half life: Example 7: 0.005% surfactant, 2.5 U/100 μl, estimated graphically. The data set is classed as biochemical. The method, then:
A 10× buffer was made with each of these surfactant solutions. The 10× buffer for each consisted of: 500 mM KCl, 100 mM Tris-HCl pH 9.0 (at 25° C.), 1% surfactant (made by a 1:10 dilution of the detergent solution described above into the buffer during formulation). As described in Example 1, the Taq polymerase used in these experiments was purified without exposure to any detergents. Each of these buffer solutions was used to formulate a Taq-surfactant solution as follows: […]
A control solution was made as indicated above, except that the 32 μl of 10× buffer without surfactant was used. The solutions were incubated at 95° C. and samples (10 μl) were removed and placed in a fresh tube, and kept on ice at 0, 5, 10, 30, 60, 90, and 120 min. The samples were then assayed for Taq polymerase activity.
Taq polymerase activity was determined by measuring the amount of tritiated deoxynucleotide base a sample of the enzyme could incorporate. The assay was performed as follows. Solutions of dATP, dCTP, dGTP and dTTP (Promega U120, U122, U121 and U123, respectively) were diluted to 2 mM final concentration (originally at 100 mM) using nanopure water. Tritiated nucleotide ^3 H-TTP was obtained from Amersham (TRK424, 250 μCi/250 μl). The template for incorporation was calf thymus DNA (Sigma, D-1501) dissolved in 10 mM Tris-HCl pH 7.3, 5 mM MgCl2 to a final concentration of 2.5 mg/ml. Prior to use, the DNA was treated with 1 μl of a 1:10 dilution of RQ1 DNAse (Promega M610) (dilution made using 10 mM Tris-HCl, 5 mM MgCl2) and incubated for 10 min at 37° C. followed by 30 min at 68° C. This was done to "activate" the DNA for incorporation. A 10× Taq assay buffer was made containing 500 mM Tris-HCl (pH 9.0 at 25° C.), 500 mM NaCl, and 100 mM MgCl2.
Time point samples (10 μl) were added to 40 μl of the reaction mix and then incubated at 74° C. for 10 min. After incubation, the solution was diluted with 500 μl of ice cold 10% TCA. The TCA solution was filtered through a GF/A filter. The tube was washed three times with 1 ml of 5% TCA and the wash was then filtered onto the same filter. The filter was then rinsed 3 times with 5% TCA and then rinsed with acetone. The filters were dried 10 min. with a heat lamp and then the radioactivity was counted. The percent of activity present at any time point was determined by dividing the net counts for the sample at that time point by the net counts of the 0 min sample for that enzyme solution and then multiplying by 100%. The percent activity of the solution was plotted versus time. The points were then connected by a smooth curve and the estimated half-life of the enzyme under the conditions chosen was estimated based on the point where the line crossed 50% activity.
In this example, the ability of ethoxylated amines to stabilize thermostable proteins at high temperatures was examined. Solutions of detergent-free Taq polymerase (2.5 U/100 μl of solution) containing 0.005% Tomah E-18-15, Tomah E-18-5, Tween 20, NP-40, and TRITON X-100 were produced as in Example 2. These solutions were incubated at 95° C. and samples were removed at 0, 10, 30, 60 and 120 min and analyzed as in Example 2. The half lives of the enzyme in the presence of these surfactants was estimated graphically. The solutions containing Tomah E-18-5, TRITON X-100 and NP-40 all had Taq polymerase half lives of about 8 min.

Data set [2] has as its target T1, Taq polymerase. In words: PCR based assay for Taq polymerase stabilization by detergents (1.5 kb amplification product on agarose gel). To be noted: 2 μl Taq polymerase (10 U/μl). The class given is biochemical. The method, then: This Example describes the development of a PCR based assay for polymerase stabilization by detergents (i.e., surfactants). Conditions were defined in which the polymerase was incapable of producing a detectable amplification product in the absence of detergent, but could produce detectable amplification in the presence of a stabilizing detergent, such as Tween 20.
The following reaction mixture was assembled:
pGEM 1 uc (Part # E1541) and 25 mM MgCl2 (Part # M1902) were obtained from Promega Corp, Madison Wis. The 10× Taq buffer formulation was: 500 mM KCl, 100 mM Tris-Cl (pH 9.0 at 25° C.). The 10× Taq buffer was made by dissolving KCl and Trizma in nanopure water and adjusting the pH with concentrated hydrochloric acid. Nanopure water was made by autoclaving deionized water treated by a NANOPURE water system. The 2 mM dNTP mix was made by mixing 100 mM stocks of dATP, dCTP, dGTP, and dTTP (Promega U120, U122, U121 and U123, respectively) with nanopure water to produce a solution containing a 2 mM concentration of each nucleotide. The DNA sequences of the primers used were […] (SEQ ID NO: 1) and […] (SEQ ID NO 2).
One hundred microliters of the reaction mixture were placed into a 0.2 ml tube and 50 μl placed in five additional tubes. […]
The reaction products were analyzed by agarose gel electrophoresis. […]

For data set [3] the following is noted: McCutcheon's Volume 1: Emulsifiers and Detergents North American Edition, 1996; cited from earlier work.

T1 sequence (P19821 whole entry): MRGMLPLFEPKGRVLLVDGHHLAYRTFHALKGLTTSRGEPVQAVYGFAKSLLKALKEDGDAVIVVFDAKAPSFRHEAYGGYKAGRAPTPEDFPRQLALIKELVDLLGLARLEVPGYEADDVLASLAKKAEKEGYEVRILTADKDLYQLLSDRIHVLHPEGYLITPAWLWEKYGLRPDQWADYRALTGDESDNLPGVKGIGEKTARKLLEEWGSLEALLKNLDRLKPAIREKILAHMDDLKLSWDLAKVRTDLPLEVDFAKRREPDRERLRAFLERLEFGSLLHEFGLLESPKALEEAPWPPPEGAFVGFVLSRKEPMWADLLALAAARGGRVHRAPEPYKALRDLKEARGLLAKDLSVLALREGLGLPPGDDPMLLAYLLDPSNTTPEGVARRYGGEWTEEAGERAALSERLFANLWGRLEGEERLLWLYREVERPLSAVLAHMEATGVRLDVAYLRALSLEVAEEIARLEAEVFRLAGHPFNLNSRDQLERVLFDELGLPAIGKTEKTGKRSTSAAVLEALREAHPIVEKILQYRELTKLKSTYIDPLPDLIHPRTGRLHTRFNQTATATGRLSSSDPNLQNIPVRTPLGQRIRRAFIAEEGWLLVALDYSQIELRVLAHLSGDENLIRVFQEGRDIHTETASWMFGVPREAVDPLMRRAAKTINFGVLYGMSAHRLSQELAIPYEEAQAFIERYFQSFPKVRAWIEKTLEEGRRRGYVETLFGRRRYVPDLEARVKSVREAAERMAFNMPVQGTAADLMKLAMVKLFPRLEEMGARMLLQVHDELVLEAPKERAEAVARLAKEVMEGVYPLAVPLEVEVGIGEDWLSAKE

For the compound `C[C@H](CCC(=O)NCCC[N+](C)(C)CCCS(=O)(=O)[O-])[C@H]1CC[C@H]2[C@@H]3[C@H](O)C[C@@H]4C[C@H](O)CC[C@]4(C)[C@H]3C[C@H](O)[C@]12C` [Chaps], on Taq polymerase [1], the “estimated half-life of Taq polymerase” value is “approximately 5 min”.
Still for that read-out and setting: to `C[C@H](CCC(=O)NCCC[N+](C)(C)CC(O)CS(=O)(=O)[O-])[C@H]1CC[C@H]2[C@@H]3[C@H](O)C[C@@H]4C[C@H](O)CC[C@]4(C)[C@H]3C[C@H](O)[C@]12C` (some centres unmarked) [Chapso] belongs “approximately 5 min”.
Consider `CCCCCCCCCC[N+](C)(C)CCCS(=O)(=O)[O-]` [N-decyl-n,n-dimethyl-3-ammonium-1-propanesulfonate], for which the “1.5 kb DNA band” value at Taq polymerase [2] (Example 3, second set: 5 μl of 10% surfactant in 95 μl mix, no band without surfactant) is recorded as “failed to produce a visible 1.5 kb DNA fragment”; on Taq polymerase [2] (Example 3: 1 μl of 10% surfactant in 99 μl mix, weaker but visible band without surfactant) it was “band intermediate in intensity”.
Take TRITON X-100: on Taq polymerase [1], the “estimated half-life of Taq polymerase” value is on record as “approximately 40 min” and the “Taq polymerase half life” value is given as “about 8 min”. In addition, the “HLB Index” value in data set [3] is listed as 13.5.
ethoxylated alky phenol [NP-40]: on Taq polymerase [1], the “Taq polymerase half life” value is “about 8 min”.
